Common to all, as to format: biochemical
One test deals with T1, Human AXL (Homo sapiens, UniProt P30530).
T1 construct: Human AXL (residues 464-885; CarnaBio, 1 ng/ well); purchased CarnaBio
T1 sequence (P30530 464-885 isoform P30530-2): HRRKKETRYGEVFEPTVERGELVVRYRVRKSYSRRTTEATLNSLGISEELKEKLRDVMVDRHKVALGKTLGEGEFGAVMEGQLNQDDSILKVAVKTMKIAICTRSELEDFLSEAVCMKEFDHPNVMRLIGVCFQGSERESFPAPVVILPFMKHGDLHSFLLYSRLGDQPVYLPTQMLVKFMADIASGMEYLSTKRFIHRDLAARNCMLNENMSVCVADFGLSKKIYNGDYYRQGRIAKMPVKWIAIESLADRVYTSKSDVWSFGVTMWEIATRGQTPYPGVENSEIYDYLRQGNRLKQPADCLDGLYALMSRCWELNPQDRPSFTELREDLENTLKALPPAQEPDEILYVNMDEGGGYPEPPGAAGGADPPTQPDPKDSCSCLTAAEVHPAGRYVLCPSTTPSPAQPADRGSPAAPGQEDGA
Briefly: Human AXL kinase assay (HTRF KinEase). The conditions noted are these: Table 2 Biological Activities, ATP at Km (1.0 μM). Here is the method:
(§1) Kinase activity and compound inhibition were investigated using the HTRF® KinEase assay (Cisbio Cat #62TKOPEB) per manufacturer's instructions. In short, compounds were delivered in 300 nL volumes at 10 different concentrations in DMSO (3% final) to empty 384-well assay plates (Corning cat #3824). A mixture of enzyme, 1 μM biotynlated peptide substrate, and buffer in 10 μL volume was added. The assay was started upon the addition of ATP (at Km). The 10 μL reaction was incubated at room temperature. The reaction was stopped upon the addition of detection buffer containing streptavidin-XL665 (5 μL) and TK antibody-Eu3+ (5 μL). After a 60 min incubation at room temperature, the fluorescence at 665 nm and 620 nm was read on an Envision microplate reader (Perkin Elmer). Kinase activity normalized to DMSO (100% activity) and reference compound at 1 μM and (0% activity) was calculated using the fluorescence ratio […]. IC50 values were calculated by nonlinear regression analysis using a 4-parameter logistic curve fit in ActivityBase XE (IDBS).
Human AXL (residues 464-885; CarnaBio, 1 ng/ well) was incubated with enzymatic buffer (Cisbio) supplemented with 5 mM MgCl2, 1 mM DTT, and Supplemental Enzymatic Buffer (SEB; Cisbio). The mixture was added to the pre-plated compounds. The reaction was initiated upon addition of ATP at Km (1.0 μM). The reaction was incubated at room temperature for 50 min and stopped upon the addition of SA-XL665 and TK-antibody both diluted in EDTA-containing kinase detection buffer (Cisbio). The kinase activity was calculated as stated above and the IC50 values were reported.

The target in a further test is T2, Human MER (Homo sapiens, UniProt Q12866).
T2 construct: Human MER (residues 528-999; CarnaBio, 1 ng/ well); purchased CarnaBio
T2 sequence (Q12866 528-999): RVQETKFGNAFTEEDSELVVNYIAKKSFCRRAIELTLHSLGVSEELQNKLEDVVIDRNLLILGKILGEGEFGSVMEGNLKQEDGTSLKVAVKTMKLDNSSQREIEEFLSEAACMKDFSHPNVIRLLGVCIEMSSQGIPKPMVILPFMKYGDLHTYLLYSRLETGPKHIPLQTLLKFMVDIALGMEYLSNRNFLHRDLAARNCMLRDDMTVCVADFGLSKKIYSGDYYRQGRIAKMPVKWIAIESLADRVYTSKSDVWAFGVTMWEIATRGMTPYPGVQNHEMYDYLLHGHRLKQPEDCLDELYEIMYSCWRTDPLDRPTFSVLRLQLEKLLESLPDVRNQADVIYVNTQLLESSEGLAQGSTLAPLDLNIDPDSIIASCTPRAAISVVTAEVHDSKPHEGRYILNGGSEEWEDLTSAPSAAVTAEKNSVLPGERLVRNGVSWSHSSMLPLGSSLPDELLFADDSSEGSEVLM
Briefly: Human MER kinase assay (HTRF KinEase). The conditions noted are these: Table 2 Biological Activities, ATP at Km (40 μM). Here is the method:
as §1
Human MER (residues 528-999; CarnaBio, 1 ng/ well) was incubated with enzymatic buffer (Cisbio) supplemented with 5 mM MgCl2 and 1 mM DTT. The mixture was added to the pre-plated compounds. The reaction was initiated upon addition of ATP at Km (40 μM). The reaction was incubated at room temperature for 60 min and stopped upon the addition of SA-XL665 and TK-antibody both diluted in EDTA-containing kinase detection buffer (Cisbio). The kinase activity was calculated as stated above and the IC50 values were reported.

Another test concerns the target Met (Homo sapiens, UniProt P08581). Briefly: Human MET kinase assay (HTRF KinEase). On the set-up: Human MET (residues 956-1390; CarnaBio, 0.1 ng/ well); purchased CarnaBio. Particulars: Table 2 Biological Activities, ATP at Km (3.0 μM), read-out: c-Met IC50. As for the experimental part: as §1
Human MET (residues 956-1390; CarnaBio, 0.1 ng/ well) was incubated with enzymatic buffer (Cisbio) supplemented with 5 mM MgCl2, 1 mM DTT and 1 mM MnCl2. The mixture was added to the pre-plated compounds. The reaction was initiated upon addition of ATP at Km (3.0 μM). The reaction was incubated at room temperature for 40 min and stopped upon the addition of SA-XL665 and TK-antibody both diluted in EDTA-containing kinase detection buffer (Cisbio). The kinase activity was calculated as stated above and the IC50 values were reported.

The target in a further test is KDR (Homo sapiens, UniProt P35968). Briefly: Human KDR kinase assay (HTRF KinEase). Also noted: Human KDR (residues 790-1356; CarnaBio, 0.1 ng/ well); purchased CarnaBio. The conditions noted are these: Table 2 Biological Activities, ATP at Km (4.0 μM). As for the experimental part:
as §1
Human KDR (residues 790-1356; CarnaBio, 0.1 ng/ well) was incubated with enzymatic buffer (Cisbio) supplemented with 5 mM MgCl2, 1 mM MnCl2, and 1 mM DTT. The mixture was added to the pre-plated compounds. The reaction was initiated upon addition of ATP at Km (4.0 μM). The reaction was incubated at room temperature for 40 min and stopped upon the addition of SA-XL665 and TK-antibody both diluted in EDTA-containing kinase detection buffer (Cisbio). The kinase activity was calculated as stated above and the IC50 values were reported.
(In general: TR-FRET usually uses a lanthanide donor and a delayed reading to cut background.)

Each structure is given as a SMILES string. pIC50: −log10 of the molar value.

Sequence of Met (P08581 956-1390): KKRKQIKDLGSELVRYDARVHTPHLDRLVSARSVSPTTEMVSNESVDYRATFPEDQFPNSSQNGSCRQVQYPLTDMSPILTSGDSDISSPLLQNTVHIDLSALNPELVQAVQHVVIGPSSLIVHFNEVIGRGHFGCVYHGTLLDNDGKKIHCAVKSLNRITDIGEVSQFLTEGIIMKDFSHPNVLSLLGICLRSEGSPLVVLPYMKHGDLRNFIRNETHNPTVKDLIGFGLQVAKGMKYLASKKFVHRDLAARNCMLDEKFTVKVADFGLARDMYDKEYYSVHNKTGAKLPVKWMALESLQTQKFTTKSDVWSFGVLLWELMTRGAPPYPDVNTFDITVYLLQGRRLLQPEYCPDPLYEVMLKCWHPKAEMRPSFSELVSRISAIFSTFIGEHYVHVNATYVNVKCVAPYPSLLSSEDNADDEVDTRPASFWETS
Sequence of KDR (P35968 790-1356): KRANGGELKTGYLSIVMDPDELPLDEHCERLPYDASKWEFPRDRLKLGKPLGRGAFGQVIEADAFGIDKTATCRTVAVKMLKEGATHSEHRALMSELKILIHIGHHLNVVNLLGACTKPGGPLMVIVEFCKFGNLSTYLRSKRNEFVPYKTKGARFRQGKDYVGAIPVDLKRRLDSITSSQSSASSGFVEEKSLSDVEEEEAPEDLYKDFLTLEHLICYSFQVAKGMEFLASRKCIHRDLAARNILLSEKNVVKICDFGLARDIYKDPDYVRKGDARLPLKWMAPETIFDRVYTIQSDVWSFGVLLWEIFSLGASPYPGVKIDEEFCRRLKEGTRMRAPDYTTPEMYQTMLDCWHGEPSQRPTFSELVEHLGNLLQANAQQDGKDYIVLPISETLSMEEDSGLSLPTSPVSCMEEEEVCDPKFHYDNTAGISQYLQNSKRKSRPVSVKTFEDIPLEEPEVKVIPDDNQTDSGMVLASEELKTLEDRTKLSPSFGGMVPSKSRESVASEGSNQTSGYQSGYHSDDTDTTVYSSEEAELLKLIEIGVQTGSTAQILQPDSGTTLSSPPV

The pIC50 is −log10 of the IC50, conventionally taken in molar units. For `COc1cc2nccc(Oc3ccc(NC(=O)c4c(C)ccn(-c5ccc(F)cn5)c4=O)cc3F)c2nc1OC` [Compound 41, N-[4-[(6,7-Dimethoxy-1,5-naphthyridin-4-yl)oxy]-3-fluorophenyl]-1-(5-fluoropyridin-2-yl)-4-methyl-2-oxopyridine-3-carboxamide], the pIC50 at Human AXL, against Human MER, at Met and on KDR was ≥ 7.00 in each case.
Turning to `COc1cc2nccc(Oc3ccc(NC(=O)c4cccn(-c5ccc(F)cn5)c4=O)cc3F)c2nc1OC` [Compound 42, N-[4-[(6,7-Dimethoxy-1,5-naphthyridin-4-yl)oxy]-3-fluorophenyl]-1-(5-fluoropyridin-2-yl)-2-oxopyridine-3-carboxamide], the pIC50 against Human AXL, on Human MER, at Met and against KDR was ≥ 7.00 each time.
For the compound `COc1ccc2nccc(Oc3ccc(NC(=O)c4ccc(C)n(-c5ccc(F)cn5)c4=O)cc3F)c2c1` [Compound 49, N-[3-Fluoro-4-(6-methoxyquinolin-4-yl)oxyphenyl]-1-(5-fluoropyridin-2-yl)-6-methyl-2-oxopyridine-3-carboxamide], the pIC50 on Human MER was ≥ 7.00; on Met, ≥ 7.00; against KDR, 6.52 to 7.00.
Take `Cc1ccc(C(=O)Nc2ccc(Oc3ccnc4cnc(Cl)cc34)c(F)c2)c(=O)n1-c1ccc(F)cn1` [Compound 54A, N-[4-[(6-Chloro-1,7-naphthyridin-4-yl)oxy]-3-fluorophenyl]-1-(5-fluoropyridin-2-yl)-6-methyl-2-oxopyridine-3-carboxamide]: the pIC50 against Human MER is ≥ 7.00; on Met it was 6.52 to 7.00; against KDR, 6.00 to 6.52.
In the case of `COc1cc2nccc(Oc3ccc(NC(=O)c4cc(C#N)c(C)n(-c5ccc(F)cn5)c4=O)cc3F)c2nc1OC` [Compound 56, 5-Cyano-N-[4-[(6,7-dimethoxy-1,5-naphthyridin-4-yl)oxy]-3-fluorophenyl]-1-(5-fluoropyridin-2-yl)-6-methyl-2-oxopyridine-3-carboxamide], the pIC50 on Human MER is ≥ 7.00; at Met it was ≥ 7.00; against KDR, 6.00 to 6.52.
Take `COc1cc2nccc(Oc3ccc(NC(=O)c4c(C)n(C)cc(-c5ccc(F)cn5)c4=O)cc3F)c2nc1OC` [Compound 71, N-[4-[(6,7-Dimethoxy-1,5-naphthyridin-4-yl)oxy]-3-fluorophenyl]-5-(5-fluoropyridin-2-yl)-1,2-dimethyl-4-oxopyridine-3-carboxamide]: the values for the pIC50 at Human MER and against KDR were ≥ 7.00 and 6.00 to 6.52, respectively.
For `COc1cc2nccc(Oc3ccc(NC(=O)c4c(C)n(C)cc(-c5ccc(F)cn5)c4=O)cc3)c2nc1OC` [Compound 72, N-[4-[(6,7-Dimethoxy-1,5-naphthyridin-4-yl)oxy]phenyl]-5-(5-fluoropyridin-2-yl)-1,2-dimethyl-4-oxopyridine-3-carboxamide], the pIC50 against Human MER is 6.52 to 7.00; on Met it was 6.00 to 6.52; at KDR, 6.00 to 6.52.
For `COc1cnc2c(Oc3ccc(NC(=O)c4c(C)n(C)cc(-c5ccc(F)cn5)c4=O)cc3F)ccnc2c1` [Compound 73, N-[3-Fluoro-4-[(7-methoxy-1,5-naphthyridin-4-yl)oxy]phenyl]-5-(5-fluoropyridin-2-yl)-1,2-dimethyl-4-oxopyridine-3-carboxamide], the pIC50 was 6.52 to 7.00 against Human MER, 6.00 to 6.52 on Met and 6.00 to 6.52 on KDR.
Take `COCc1nc(C)c(-c2ccc(F)cn2)c(O)c1C(=O)Nc1ccc(Oc2ccnc3cc(OC)c(OC)nc23)c(F)c1` [Compound 214, N-[4-[(6,7-Dimethoxy-1,5-naphthyridin-4-yl)oxy]-3-fluorophenyl]-5-(5-fluoropyridin-2-yl)-4-hydroxy-2-(methoxymethyl)-6-methylpyridine-3-carboxamid]: the pIC50 against Human AXL and at Met was ≥ 7.00 in each case.
For `COc1cc2nccc(Oc3ccc(NC(=O)c4c(C)nc(C)c(-c5ccc(F)cn5)c4O)cc3)c2nc1OC` [Compound 216, N-[4-[(6,7-Dimethoxy-1,5-naphthyridin-4-yl)oxy]phenyl]-5-(5-fluoropyridin-2-yl)-4-hydroxy-2,6-dimethylpyridine-3-carboxamide], the pIC50 on Human AXL and on Met was ≥ 7.00 in each case.
In the case of `COc1cnc2c(Oc3ccc(NC(=O)c4c(C)nc(C)c(-c5ccc(F)cn5)c4O)cc3F)ccnc2c1` [Compound 217, N-[3-Fluoro-4-[(7-methoxy-1,5-naphthyridin-4-yl)oxy]phenyl]-5-(5-fluoropyridin-2-yl)-4-hydroxy-2,6-dimethylpyridine-3-carboxamide], the negative logarithm of the IC50 (pIC50) on Human AXL and on Met was ≥ 7.00 each time.
As to `COc1cc2nccc(Oc3ccc(NC(=O)c4c(C)nc(C)c(-c5ccc(F)cn5)c4O)cc3F)c2nc1OC` [Compound 218, N-[4-[(6,7-Dimethoxy-1,5-naphthyridin-4-yl)oxy]-3-fluorophenyl]-5-(5-fluoropyridin-2-yl)-4-hydroxy-2,6-dimethylpyridine-3-carboxamide], the pIC50 against Human AXL and at Met was ≥ 7.00 in each case.
Turning to `COc1cc2nccc(Oc3ccc(NC(=O)c4ccc(C)n(-c5ccncc5F)c4=O)cc3F)c2nc1OC` [Compound 220, N-[4-[(6,7-Dimethoxy-1,5-naphthyridin-4-yl)oxy]-3-fluorophenyl]-1-(3-fluoropyridin-4-yl)-6-methyl-2-oxopyridine-3-carboxamide], the pIC50 on Human AXL and on Met was ≥ 7.00 in each case.
Consider `COc1cc2nccc(Oc3ccc(NC(=O)c4ccc(C)n(-c5ccncc5)c4=O)cc3F)c2nc1OC` [Compound 221, N-[4-[(6,7-Dimethoxy-1,5-naphthyridin-4-yl)oxy]-3-fluorophenyl]-6-methyl-2-oxo-1-pyridin-4-ylpyridine-3-carboxamid], for which the negative-log IC50 (pIC50) at Human AXL and at Met was ≥ 7.00 each time.
